IC50 data for two compounds are collected here from ChEMBL document CHEMBL1154574, “Cytonic acids A and B: novel tridepside inhibitors of hCMV protease from the endophytic fungus Cytonaema species” (J Nat Prod, 2000).

A short description of this assay: Inhibition of human cytomegalovirus protease by scintillation proximity assay. Further details: species or system Human betaherpesvirus 5.

In turn, `CCCCCc1cc(O)cc(O)c1C(=O)Oc1cc(O)c(C(=O)Oc2cc(O)c(C(=O)O)c(CCC)c2)c(CCC)c1` [CYTONIC ACID A] gave an IC50 of 43 µM.
Next, `CCCCCc1cc(OC(=O)c2c(O)cc(OC(=O)c3c(O)cc(O)cc3CCC)cc2CCC)cc(O)c1C(=O)O` [CYTONIC ACID B]: 11 µM.
